From US20150335657A1, “Methods for Modulating Sirtuin Enzymes” (The Trustees of Princeton University, priority 2014, published 2015)

Assays:
SIRT2 = target: T1, SIRT2 (Homo sapiens, UniProt Q8IXJ6); experiment: Sirtuin deacetylase enzyme activity assay (Cayman Chemical), compound screen; assay type: biochemical; details: compound at 50 μM; Z-score of change in fluorescent signal; + increase, − decrease
T1 construct: purchased Cayman Chemical
T1 sequence (Q8IXJ6 1-389): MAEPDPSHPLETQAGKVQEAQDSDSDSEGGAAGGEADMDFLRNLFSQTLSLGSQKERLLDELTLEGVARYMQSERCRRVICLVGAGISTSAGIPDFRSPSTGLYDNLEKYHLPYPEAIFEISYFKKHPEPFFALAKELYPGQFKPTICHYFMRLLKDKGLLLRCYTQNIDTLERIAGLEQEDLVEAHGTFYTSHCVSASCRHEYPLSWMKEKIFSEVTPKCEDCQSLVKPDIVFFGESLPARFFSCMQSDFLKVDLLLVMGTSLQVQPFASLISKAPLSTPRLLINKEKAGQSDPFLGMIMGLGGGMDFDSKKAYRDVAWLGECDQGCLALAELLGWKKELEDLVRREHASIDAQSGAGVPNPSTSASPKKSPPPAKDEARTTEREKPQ
Description: (§1) Sirtuins have been identified as innate viral restriction factors and it has been previously shown that drugs that modulate the activity of these enzymes block the production of multiple viruses in culture (see, e.g., WO 2012/106509). Sirtuins are NAD-dependent enzymes that regulate the activity of target proteins by post-translational modifications and thereby control key cellular events (see, e.g., Haigis and Sinclair (2010) Ann Rev Pathol Mech Dis 5:253-95). SIRT1, SIRT2, SIRT3 and SIRT6 have shown a detectable deacetylase activity in well-established biochemical assays that utilize recombinant SIRT1, SIRT2, SIRT3, and SIRT6 enzymes and fluorophore-conjugated acetyl-peptides. As described in the Examples below, the deacetylase activity of these sirtuins were used as a surrogate to identify compounds having broad-range antiviral activity.
(§2) A publically disclosed, small molecule library consisting of approximately 13,000 compounds was screened using a commercially available (Cayman Chemical) enzyme activity assay. Deacetylase activity of sirtuins SIRT1, SIRT2, SIRT3, and SIRT6 was used as a surrogate to identify compounds with the potential for having broad-range antiviral activity. The compounds were tested at a single concentration (50 μM) in microtiter plates and their activity against the four sirtuins was recorded as a change in fluorescent signal intensity. […] Activation of sirtuin activity generated positive Z-scores and inhibition of sirtuin activity produced negative Z-scores.

SIRT3 = target: T2, SIRT3 (Homo sapiens, UniProt Q9NTG7); experiment: as above; assay type: biochemical; details: compound at 50 μM; Z-score of change in fluorescent signal; + increase, − decrease
T2 construct: purchased Cayman Chemical
T2 sequence (Q9NTG7 1-399): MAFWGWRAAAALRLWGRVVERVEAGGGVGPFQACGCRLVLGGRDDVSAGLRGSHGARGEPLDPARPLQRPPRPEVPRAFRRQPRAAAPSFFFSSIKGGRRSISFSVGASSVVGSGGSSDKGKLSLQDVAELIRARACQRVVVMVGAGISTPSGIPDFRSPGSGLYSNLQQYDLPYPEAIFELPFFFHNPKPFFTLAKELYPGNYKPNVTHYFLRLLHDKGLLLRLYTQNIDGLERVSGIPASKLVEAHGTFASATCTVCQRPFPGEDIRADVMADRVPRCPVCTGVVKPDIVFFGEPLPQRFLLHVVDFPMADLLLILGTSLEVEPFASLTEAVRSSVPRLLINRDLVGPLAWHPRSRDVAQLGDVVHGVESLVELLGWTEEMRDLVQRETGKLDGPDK
Description: as §1, §2

SIRT1 = target: T3, SIRT1 (Homo sapiens, UniProt Q96EB6); experiment: as above; assay type: biochemical; details: compound at 50 μM; Z-score of change in fluorescent signal; + increase, − decrease
T3 construct: purchased Cayman Chemical
T3 sequence (Q96EB6 1-747): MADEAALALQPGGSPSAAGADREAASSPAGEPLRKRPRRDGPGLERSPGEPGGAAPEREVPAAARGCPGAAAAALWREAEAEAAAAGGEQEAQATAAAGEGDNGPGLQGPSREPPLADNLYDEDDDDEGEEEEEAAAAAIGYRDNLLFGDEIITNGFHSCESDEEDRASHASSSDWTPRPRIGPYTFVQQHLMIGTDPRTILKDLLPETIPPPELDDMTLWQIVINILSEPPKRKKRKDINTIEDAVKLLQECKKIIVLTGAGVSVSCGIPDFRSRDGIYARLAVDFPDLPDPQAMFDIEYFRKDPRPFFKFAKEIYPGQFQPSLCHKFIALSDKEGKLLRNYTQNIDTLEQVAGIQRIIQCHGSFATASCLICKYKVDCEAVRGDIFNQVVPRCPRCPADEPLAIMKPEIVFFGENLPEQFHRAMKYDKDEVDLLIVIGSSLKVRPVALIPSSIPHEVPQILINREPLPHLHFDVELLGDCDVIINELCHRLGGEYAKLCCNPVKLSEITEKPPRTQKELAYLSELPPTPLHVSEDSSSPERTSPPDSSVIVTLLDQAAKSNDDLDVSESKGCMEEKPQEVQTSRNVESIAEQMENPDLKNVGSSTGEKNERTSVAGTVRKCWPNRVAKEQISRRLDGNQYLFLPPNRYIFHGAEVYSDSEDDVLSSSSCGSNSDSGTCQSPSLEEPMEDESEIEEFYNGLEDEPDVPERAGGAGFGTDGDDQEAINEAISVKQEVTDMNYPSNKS
Description: as §1, §2

SIRT6 = target: T4, SIRT6 (Homo sapiens, UniProt Q8N6T7); experiment: as above; assay type: biochemical; details: compound at 50 μM; Z-score of change in fluorescent signal; + increase, − decrease
T4 construct: purchased Cayman Chemical
T4 sequence (Q8N6T7 whole entry): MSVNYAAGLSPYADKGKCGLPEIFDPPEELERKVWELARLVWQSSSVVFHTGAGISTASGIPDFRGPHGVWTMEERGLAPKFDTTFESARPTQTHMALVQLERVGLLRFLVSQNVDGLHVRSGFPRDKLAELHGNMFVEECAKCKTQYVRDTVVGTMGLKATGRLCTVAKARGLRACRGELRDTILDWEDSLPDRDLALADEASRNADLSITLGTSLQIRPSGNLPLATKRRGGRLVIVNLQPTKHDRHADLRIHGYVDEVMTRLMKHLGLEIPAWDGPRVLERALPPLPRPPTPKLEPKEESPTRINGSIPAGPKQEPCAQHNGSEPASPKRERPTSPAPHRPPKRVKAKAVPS
Description: as §1, §2

[1] = tested on: human cytomegalovirus (HCMV) AD169 strain; experiment: Antiviral activity against HCMV in MRC5 fibroblasts (virus yield, fluorescent focus assay); assay type: cell-based; details: Human betaherpesvirus 5, HCMV AD169, 1 infectious unit/cell, treated 2 h after infection, virus in medium at 96 h
[2] = Tetrazolium-based cell viability assay (cytotoxicity); details: human

| Structure (SMILES) | SIRT2 (change in sirtuin deacetylase activity, Z-score class) (SIRT2) | SIRT3 (change in sirtuin deacetylase activity, Z-score class) (SIRT3) | SIRT1 (change in sirtuin deacetylase activity, Z-score class) (SIRT1) | SIRT6 (change in sirtuin deacetylase activity, Z-score class) (SIRT6) | IC50 [1] [µM] | IC90 [1] [µM] | CC50 at 96 h [2] [µM] |
| --- | --- | --- | --- | --- | --- | --- | --- |
| CC(c1cnc2ccccc2c1)C(F)C1N(Cc2ccccc2)C(=O)c2cccnc2N1C (stereo not drawn) | +++ (Z-score ≧ 3 = +++) | +++ (Z-score ≧ 3 = +++) | +++ (Z-score ≧ 3 = +++) | +++ (Z-score ≧ 3 = +++) | 1.74 | 16.1 | > 50 |
| CC(c1ccccc1Cl)C1CN(C2CCC(O)CC2)S(=O)(=O)c2c(F)cccc2O1 (stereo not drawn) | na (−2 ≦ Z-score < 2 = no activity (na)) | na (−2 ≦ Z-score < 2 = no activity (na)) | na (−2 ≦ Z-score < 2 = no activity (na)) | +++ (Z-score ≧ 3 = +++) | 2.33 | 31.3 | > 50 |
| CC(c1ccc2nccnc2c1)c1cnc(N2CCc3ccccc3C2)s1 (stereo not drawn) | −− (−3 < Z-score ≦ −2 = −−) | na (−2 ≦ Z-score < 2 = no activity (na)) | −− (−3 < Z-score ≦ −2 = −−) | na (−2 ≦ Z-score < 2 = no activity (na)) | 4.58 | 5.95 | > 50 |
| CC(c1cnc2ccccc2c1)C(F)CNc1cnc2ccccc2c1 (stereo not drawn) | na (−2 ≦ Z-score < 2 = no activity (na)) | na (−2 ≦ Z-score < 2 = no activity (na)) | na (−2 ≦ Z-score < 2 = no activity (na)) | +++ (Z-score ≧ 3 = +++) | 6.89 | 17.6 | > 50 |
| CCOc1cc(C)n(C(CNc2cnc3ccccc3c2)C(C)c2cccnc2C)n1 (stereo not drawn) | ++ (2 ≦ Z-score < 3 = ++) | +++ (Z-score ≧ 3 = +++) | ++ (2 ≦ Z-score < 3 = ++) | +++ (Z-score ≧ 3 = +++) | 8.26 | 33.9 | > 50 |
| Cc1cc(-c2ccccc2)nn1C1CN(Cc2cccc(C(F)(F)F)c2)C(=O)C1C(C)C (stereo not drawn) | na (−2 ≦ Z-score < 2 = no activity (na)) | na (−2 ≦ Z-score < 2 = no activity (na)) | ++ (2 ≦ Z-score < 3 = ++) | ++ (2 ≦ Z-score < 3 = ++) | 8.43 | 18.8 | 25 to 50 |
| CCOc1cc(C(C)C)n(C(CNc2cnc3ccccc3c2)C(C)c2cccnc2C)n1 (stereo not drawn) | na (−2 ≦ Z-score < 2 = no activity (na)) | +++ (Z-score ≧ 3 = +++) | +++ (Z-score ≧ 3 = +++) | +++ (Z-score ≧ 3 = +++) | 9.32 | 41.3 | > 50 |
| CC(c1ccncc1)C(O)Cn1cc(-c2cc(Cl)cnc2N)nn1 (stereo not drawn) | na (−2 ≦ Z-score < 2 = no activity (na)) | ++ (2 ≦ Z-score < 3 = ++) | +++ (Z-score ≧ 3 = +++) | +++ (Z-score ≧ 3 = +++) | 9.71 | 33.8 | > 50 |
| CCCN1CC(C(C)c2ccccc2OC)N(c2cccnc2)C1=O (stereo not drawn) | na (−2 ≦ Z-score < 2 = no activity (na)) | na (−2 ≦ Z-score < 2 = no activity (na)) | na (−2 ≦ Z-score < 2 = no activity (na)) | +++ (Z-score ≧ 3 = +++) | 9.91 | 32.2 | > 50 |
